In patent publication US12479849B2, “EGFR inhibitors for the treatment of cancer” (Hoffmann-La Roche Inc., priority 2019, dated 2025) one finds IC50 data, which are given here for 19 molecules.

This experiment has as its target T1, EGFR TMLRCS (Homo sapiens, UniProt P00533, C797S/L858R/T790M).
T1 construct: host or cells: BaF3-TMLRCS (Ba/F3 cells, kept under puromycin selection)
Kind of experiment: HTRF Phospho EGFR TMLRCS Assay (Cellular). Type of experiment: cell-based. The conditions noted are these: BaF3-TMLRCS cell line, 4 hours incubation, Phospho-EGFR HTRF readout. On the procedure:
HTRF Phospho EGFR TMLRCS Assay (Cellular)
BaF3-TMLRCS cell line were obtained from Crownbio (San Diego, CA, USA). Cells were maintained at 37° C., 5% CO2 in RPMI ATCC (Gibco 31870)+2 mM Glutamine+0.5 μg/ml Puromycin supplemented with 10% fetal bovine serum (FBS) (Gibco).
Cells are transferred as above to Greiner Bio-One, Nr. 784-08 micro-titerplate at 20000 cells/well in 12.5 μl of growth medium/well after the plates had been pre-filled with 12.5 nl of DMSO solutions of the to be tested compounds (in dose response) or DMSO only. After spinning the plates at 300×g for 30 seconds the cells were incubated for 4 hours at 37 C, 5% CO2, 95% humidity. The cells were lysed by adding to the compound mix 4 μl/well of the supplemented lysis buffer (Cis-bio, Phospho-EGFR HTRF kit, 64EG1PEH), followed by incubation for 30 min at room temperature with shaking (400 rpm). The plates were then frozen and stored overnight at −80 C. On the next day and after thawing the plates, 4 μl of a mixture of anti-Phospho-EGFR Cryptate and of anti-Phospho-EGFR-d2 antibody solutions prepared in the supplied detection buffer was added to each well. The lidded plates were then incubated for 4 h at room temperature before reading the fluorescence emission at 616 and 665 nm using an Envision reader (Perkin Elmer). Data was analyzed in similar fashion as above using the normalized ratio of the 665 to 616 signals multiplied by 10000.
For orientation: Time-resolved FRET reads energy transfer from a long-lived donor to a nearby acceptor.

As usually defined, the IC50 is the midpoint of a concentration-inhibition curve. A high value points to a need for much substance.

T1 sequence (P00533 25-1210 T790M/C797S/L858R): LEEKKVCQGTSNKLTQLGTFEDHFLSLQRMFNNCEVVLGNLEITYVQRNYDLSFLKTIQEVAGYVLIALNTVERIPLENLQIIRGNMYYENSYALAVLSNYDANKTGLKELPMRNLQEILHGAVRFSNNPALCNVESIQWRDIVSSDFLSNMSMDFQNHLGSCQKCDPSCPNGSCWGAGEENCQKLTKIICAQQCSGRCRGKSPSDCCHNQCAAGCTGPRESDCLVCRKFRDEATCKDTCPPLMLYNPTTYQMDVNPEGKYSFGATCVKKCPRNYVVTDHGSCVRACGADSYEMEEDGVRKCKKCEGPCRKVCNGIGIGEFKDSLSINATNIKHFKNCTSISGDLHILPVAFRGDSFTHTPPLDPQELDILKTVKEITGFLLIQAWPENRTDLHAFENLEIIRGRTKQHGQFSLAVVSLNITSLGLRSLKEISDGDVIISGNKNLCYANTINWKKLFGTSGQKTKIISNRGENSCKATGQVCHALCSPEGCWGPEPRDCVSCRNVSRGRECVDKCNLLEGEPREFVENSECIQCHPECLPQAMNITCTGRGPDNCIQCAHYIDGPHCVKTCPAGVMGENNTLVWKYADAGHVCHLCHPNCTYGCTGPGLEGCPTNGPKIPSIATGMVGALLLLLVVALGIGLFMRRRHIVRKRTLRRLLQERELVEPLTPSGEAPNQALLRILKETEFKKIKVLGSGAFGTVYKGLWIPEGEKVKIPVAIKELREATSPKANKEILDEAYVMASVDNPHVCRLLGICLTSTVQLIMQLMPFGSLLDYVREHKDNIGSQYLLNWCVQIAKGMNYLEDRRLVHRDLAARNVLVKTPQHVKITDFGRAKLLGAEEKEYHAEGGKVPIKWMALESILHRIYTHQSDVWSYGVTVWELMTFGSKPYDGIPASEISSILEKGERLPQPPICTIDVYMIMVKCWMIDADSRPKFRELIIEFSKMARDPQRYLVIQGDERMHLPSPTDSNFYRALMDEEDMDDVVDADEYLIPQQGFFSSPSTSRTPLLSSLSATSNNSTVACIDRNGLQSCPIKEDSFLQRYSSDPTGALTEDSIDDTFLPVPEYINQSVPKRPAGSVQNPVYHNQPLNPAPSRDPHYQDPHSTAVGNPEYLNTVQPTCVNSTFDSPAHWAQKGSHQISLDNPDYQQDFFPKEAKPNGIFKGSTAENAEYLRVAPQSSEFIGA

`O=C(Nc1nccs1)C(c1ncn2c1C[C@@H](F)C2)n1cc2c(Cl)cc(-c3ccc(CCN4CCC(CO)C4)cc3)c(Cl)c2n1` (mixture of isomers) [Example 52, rac-2-(4,7-Dichloro-6-(4-(2-(3-(hydroxymethyl)pyrrolidin-1-yl)ethyl)phenyl)-2H-indazol-2-yl)-2-((R)-6-fluoro-6,7-dihydro-5H-pyrrolo[1,2-c]imidazol-1-yl)-N-(thiazol-2-yl)acetamide] came in with an IC50 of 6 nM.
To `O=C(Nc1nccs1)C(c1ncn2c1C[C@@H](F)C2)n1cc2c(Cl)cc(-c3ccc(CN4CCC(CO)CC4)cc3)c(Cl)c2n1` (mixture of isomers) [Example 53, rac-2-(4,7-Dichloro-6-(4-04-(hydroxymethyl)piperidin-1-yl)methyl)phenyl)-2H-indazol-2-yl)-2-((R)-6-fluoro-6,7-dihydro-5H-pyrrolo[1,2-c]imidazol-1-yl)-N-(thiazol-2-yl)acetamide] belongs 5 nM; to `O=C(Nc1nccs1)C(c1ncn2c1C[C@@H](F)C2)n1cc2c(Cl)cc(-c3ccc(CCCN4CCC(O)CC4)cc3)c(Cl)c2n1` (mixture of isomers) [Example 57, rac-2-(4,7-Dichloro-6-(4-(3-(4-hydroxypiperidin-1-yl)propyl)phenyl)-2H-indazol-2-yl)-2-((R)-6-fluoro-6,7-dihydro-5H-pyrrolo[1,2-c]imidazol-1-yl)-N-(thiazol-2-yl)acetamide], 7 nM.
Molecule `O=C(Nc1nccs1)C(c1ncn2c1C[C@@H](F)C2)n1cc2c(Cl)cc(-c3ccc(CN4CCC(O)CC4)cc3)c(Cl)c2n1` (mixture of isomers) [Example 58, rac-2-(4,7-Dichloro-6-(4-((4-hydroxypiperidin-1-yl)methyl)phenyl)-2H-indazol-2-yl)-2-((R)-6-fluoro-6,7-dihydro-5H-pyrrolo[1,2-c]imidazol-1-yl)-N-(thiazol-2-yl)acetamide] yielded an IC50 of 5 nM.
In the case of `O=C(Nc1nccs1)C(c1ncn2c1C[C@@H](F)C2)n1cc2c(Cl)cc(-c3ccc(N4CC(CN5CCC(CO)CC5)C4)cc3)c(Cl)c2n1` (mixture of isomers) [Example 59, rac-2-(4,7-Dichloro-6-(4-(3-((4-(hydroxymethyl)piperidin-1-yl)methyl)azetidinyl)phenyl)-2H-indazol-2-yl)-2-((R)-6-fluoro-6,7-dihydro-5H-pyrrolo[1,2-c]imidazol-1-yl)-N-(thiazol-2-yl)acetamide], the IC50 was 5 nM.
In turn, `CC(O)C1CCN(CCc2ccc(-c3cc(Cl)c4cn(C(C(=O)Nc5nccs5)c5ncn6c5C[C@@H](F)C6)nc4c3Cl)cc2)CC1` (mixture of isomers) [Example 60, rac-2-(4,7-Dichloro-6-(4-(2-(4-(1-hydroxyethyl)piperidin-1-yl)ethyl)phenyl)-2H-indazol-2-yl)-2-((R)-6-fluoro-6,7-dihydro-5H-pyrrolo[1,2-c]imidazol-1-yl)-N-(thiazol-2-yl)acetamide] displayed an IC50 of 9 nM.
To `O=C(Nc1nccs1)C(c1ncn2c1C[C@@H](F)C2)n1cc2c(Cl)cc(-c3ccc(N4CCN(CCO)CC4)cc3)c(Cl)c2n1` (mixture of isomers) [Example 61, rac-2-(4,7-Dichloro-6-(4-(4-(2-hydroxyethyl)piperazin-1-yl)phenyl)-2H-indazol-2-yl)-2-((R)-6-fluoro-6,7-dihydro-5H-pyrrolo[1,2-c]imidazol-1-yl)-N-(thiazol-2-yl)acetamide] belongs 3 nM.
In the case of `O=C(Nc1nccs1)C(c1ncn2c1C[C@@H](F)C2)n1cc2c(Cl)cc(-c3ccc(CN4CC5(CC(O)C5)C4)cc3)c(Cl)c2n1` (mixture of isomers) [Example 62, rac-2-(4,7-Dichloro-6-(4-((6-hydroxy-2-azaspiro[3.3]heptan-2-yl)methyl)phenyl)-2H-indazol-2-yl)-2-((R)-6-fluoro-6,7-dihydro-5H-pyrrolo[1,2-c]imidazol-1-yl)-N-(thiazol-2-yl)acetamide], the midpoint of inhibition, the IC50, lay at 8 nM.
`O=C(Nc1nccs1)C(c1ncn2c1C[C@@H](F)C2)n1cc2c(Cl)cc(-c3ccc(CN4CC5(COC5)C4)cc3)c(Cl)c2n1` (mixture of isomers) [Example 63, rac-2-(6-(4-((2-Oxa-6-azaspiro[3.3]heptan-6-yl)methyl)phenyl)-4,7-dichloro-2H-indazol-2-yl)-2-((R)-6-fluoro-6,7-dihydro-5H-pyrrolo[1,2-c]imidazol-1-yl)-N-(thiazol-2-yl)acetamide] showed an IC50 of 5 nM.
As to `O=C(Nc1nccs1)C(c1ncn2c1C[C@@H](F)C2)n1cc2c(Cl)cc(-c3ccc(CCN4CCC(O)CC4)cc3)c(Cl)c2n1` (mixture of isomers) [Example 64, rac-2-(4,7-Dichloro-6-(4-(2-(4-hydroxypiperidin-1-yl)ethyl)phenyl)-2H-indazol-2-yl)-2-((R)-6-fluoro-6,7-dihydro-5H-pyrrolo[1,2-c]imidazol-1-yl)-N-(thiazol-2-yl)acetamide], the IC50 amounted to 7 nM.
Consider `O=C(Nc1nccs1)C(c1ncn2c1C[C@@H](F)C2)n1cc2c(Cl)cc(-c3ccc(N4CCN(C5CC(O)C5)CC4)cc3)c(Cl)c2n1` (mixture of isomers) [Example 66, rac-2-(4,7-Dichloro-6-(4-(4-(3-hydroxycyclobutyl)piperazin-1-yl)phenyl)-2H-indazol-2-yl)-2-((R)-6-fluoro-6,7-dihydro-5H-pyrrolo[1,2-c]imidazol-1-yl)-N-(thiazol-2-yl)acetamide], for which the IC50 came out at 2 nM.
In the case of `O=C(Nc1nccs1)C(c1ncn2c1C[C@@H](F)C2)n1cc2c(Cl)cc(-c3ccc(N4CCOC(CO)C4)cc3)c(Cl)c2n1` (mixture of isomers) [Example 67, rac-2-(4,7-Dichloro-6-(4-(2-(hydroxymethyl)morpholino)phenyl)-2H-indazol-2-yl)-2-((R)-6-fluoro-6,7-dihydro-5H-pyrrolo[1,2-c]imidazol-1-yl)-N-(thiazol-2-yl)acetamide], the IC50 is 3 nM.
Regarding `O=C(Nc1nccs1)C(c1ncn2c1C[C@@H](F)C2)n1cc2c(Cl)cc(-c3ccc(OCCN4CCC(CO)CC4)cc3)c(Cl)c2n1` (mixture of isomers) [Example 68, rac-2-(4,7-Dichloro-6-(4-(2-(4-(hydroxymethyl)piperidin-1-yl)ethoxy)phenyl)-2H-indazol-2-yl)-2-((R)-6-fluoro-6,7-dihydro-5H-pyrrolo[1,2-c]imidazol-1-yl)-N-(thiazol-2-yl)acetamide], the IC50 was 4 nM.
To `O=C(Nc1nccs1)C(c1ncn2c1C[C@@H](F)C2)n1cc2c(Cl)cc(-c3ccc(CCN4CCC(O)C4)cc3)c(Cl)c2n1` (mixture of isomers) [Example 70, rac-2-(4,7-Dichloro-6-(4-(2-(3-hydroxypyrrolidin-1-yl)ethyl)phenyl)-2H-indazol-2-yl) ((R)-6-fluoro-6,7-dihydro-5H-pyrrolo[1,2-c]imidazol-1-yl)-N-(thiazol-2-yl)acetamide] belongs 8 nM; to `CC(O)CN1CCN(c2ccc(-c3cc(Cl)c4cn(C(C(=O)Nc5nccs5)c5ncn6c5C[C@@H](F)C6)nc4c3Cl)cc2)CC1` (mixture of isomers) [Example 71, rac-2-(4,7-Dichloro-6-(4-(4-(2-hydroxypropyl)piperazin-1-yl)phenyl)-2H-indazol-2-yl)-2-((R)-6-fluoro-6,7-dihydro-5H-pyrrolo[1,2-c]imidazol-1-yl)-N-(thiazol-2-yl)acetamide], 8 nM; to `O=C(Nc1nccs1)C(c1ncn2c1C[C@@H](F)C2)n1cc2c(Cl)cc(-c3ccc(N4CCN5CCC4C5)cc3)c(Cl)c2n1` (mixture of isomers) [Example 72, rac-2-(6-(4-(1,4-Diazabicyclo[3.2.1]octan-4-yl)phenyl)-4,7-dichloro-2H-indazol-2-yl)-2-((R)-6-fluoro-6,7-dihydro-5H-pyrrolo[1,2-c]imidazol-1-yl)-N-(thiazol-2-yl)acetamide], 5 nM.
With `O=C(Nc1nccs1)C(c1ncn2c1C[C@@H](F)C2)n1cc2c(Cl)cc(-c3ccc(N4CCC(CN5CCC(O)C5)CC4)cc3)c(Cl)c2n1` (mixture of isomers) [Example 74, rac-2-(4,7-Dichloro-6-(4-(4-((3-hydroxypyrrolidin-1-yl)methyl)piperidin-1-yl)phenyl)-2H-indazol-2-yl)-2-((R)-6-fluoro-6,7-dihydro-5H-pyrrolo[1,2-c]imidazol-1-yl)-N-(thiazol-2-yl)acetamide] the figure was 12 nM.
`O=C(Nc1nccs1)C(c1ncn2c1C[C@@H](F)C2)n1cc2c(Cl)cc(-c3ccc(C4CC(CN5CCC(CO)CC5)C4)cc3)c(Cl)c2n1` (mixture of isomers) [Example 75, rac-2-(4,7-Dichloro-6-(4-(34(4-(hydroxymethyl)piperidin-1-yl)methyl)cyclobutyl)phenyl)-2H-indazol-2-yl)-2-((R)-6-fluoro-6,7-dihydro-5H-pyrrolo[1,2-c]imidazol-1-yl)-N-(thiazol-2-yl)acetamide] came in with an IC50 of 8 nM.
With `O=C(Nc1nccs1)C(c1ncn2c1C[C@@H](F)C2)n1cc2c(Cl)cc(-c3ccc(C4CC(CN5CCC(O)CC5)C4)cc3)c(Cl)c2n1` (mixture of isomers) [Example 76, rac-2-(4,7-Dichloro-6-(4-(34(4-hydroxypiperidin-1-yl)methyl)cyclobutyl)phenyl)-2H-indazol-2-yl)-2-((R)-6-fluoro-6,7-dihydro-5H-pyrrolo[1,2-c]imidazol-1-yl)-N-(thiazol-2-yl)acetamide] the figure was 11 nM.
